Results: publication PMC10388794 (Journal of Enzyme Inhibition and Medicinal Chemistry, 2023)

Tests used:
[1] = system: Aβ1–42-induced cognitive impairment in mice; experiment: Morris water maze in Aβ1–42-induced cognitive impairment model; assay type: in vivo; details: T14-A24 10 mg/kg po, donepezil 15 mg/kg po
[2] = target: recombinant human AChE (hAChE) (Homo sapiens, UniProt P22303); experiment: hAChE inhibition assay; assay type: biochemical; details: read-out: hAChE inhibition rate % at 20 µM
recombinant human AChE (hAChE), sequence (P22303 32-614): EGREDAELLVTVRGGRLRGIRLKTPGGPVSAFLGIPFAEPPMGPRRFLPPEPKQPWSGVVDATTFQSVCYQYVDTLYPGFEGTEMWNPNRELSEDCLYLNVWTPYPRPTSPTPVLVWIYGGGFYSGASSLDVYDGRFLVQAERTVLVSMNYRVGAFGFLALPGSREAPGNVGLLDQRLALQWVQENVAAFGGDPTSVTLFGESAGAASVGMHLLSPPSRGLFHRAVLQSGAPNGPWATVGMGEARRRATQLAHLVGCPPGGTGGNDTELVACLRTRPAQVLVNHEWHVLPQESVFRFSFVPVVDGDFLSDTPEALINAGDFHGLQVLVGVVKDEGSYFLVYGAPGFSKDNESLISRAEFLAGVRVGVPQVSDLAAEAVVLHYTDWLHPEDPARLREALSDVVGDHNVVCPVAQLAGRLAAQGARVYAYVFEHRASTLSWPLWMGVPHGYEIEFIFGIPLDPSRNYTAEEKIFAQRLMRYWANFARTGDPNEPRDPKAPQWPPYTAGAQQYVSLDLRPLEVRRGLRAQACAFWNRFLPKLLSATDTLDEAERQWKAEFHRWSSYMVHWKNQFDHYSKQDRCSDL

Row | Compound | Aβ1–42-induced cognitive dysfunction (Morris water maze) [1] | inhibition at 20 µM [2] [%]
1 | COc1cc2c(cc1OC)C(=O)C(CC1CCN(Cc3ccccc3)CC1)C2 (centres unmarked) [Donepezil] | significantly improved | 
2 | CCN(C)C(=O)Oc1cccc([C@H](C)N(C)C)c1 [Rivastigmine] |  | 16.5 ± 0.8
